Measurements taken from ChEMBL document CHEMBL1138112, “Indoloprodigiosins from the C-10 bipyrrolic precursor: new antiproliferative prodigiosin analogs” (Bioorg Med Chem Lett, 2006).

Assays:
Format in all cases: functional, cell-based
Details in all cases: Homo sapiens
HT-29 = assay: Antiproliferative activity against HT29 cell line by MTS assay
DLD-1 = assay: Antiproliferative activity against DLD1 cell line by MTS assay
MDA-MB-231 = assay: Antiproliferative activity against MDA-MB-231 cell line by MTS assay
NCI-H460 = assay: Antiproliferative activity against NCI-H460 cell line by MTS assay
A549 = assay: Antiproliferative activity against A549 cell line by MTS assay

Row | IC50 (HT-29) [µM] | IC50 (DLD-1) [µM] | IC50 (MDA-MB-231) [µM] | IC50 (NCI-H460) [µM] | IC50 (A549) [µM] | SMILES
1 | 36.2 | 63.2 | 47.4 | 21.6 | 54.6 | COc1cc(-c2ccc[nH]2)[nH]c1/C=C1\C(C)=Nc2ccccc21
2 | 12.3 | 16.7 | 23.2 | 10.8 | 14.3 | COc1cc(-c2ccc[nH]2)[nH]c1/C=C1\C(C)=Nc2ccc(C)cc21
3 | 0.781 | 0.446 | 1.38 | 0.23 | 0.487 | COc1cc(-c2ccc[nH]2)[nH]c1/C=C1/C=C2CCCCC2=N1
4 | 13.5 | 7.74 | 12.8 | 3.45 | 6.45 | COC1=CC(c2ccc[nH]2)=N/C1=C\c1[nH]c(-c2ccc[nH]2)cc1OC
5 | 4.68 | 6.02 | 9.35 | 4.06 | 6.61 | COc1cc(-c2ccc[nH]2)[nH]c1/C=C1\C=Nc2ccccc21

Row | SMILES | IC50 (HT-29) [µM] | IC50 (DLD-1) [µM] | IC50 (MDA-MB-231) [µM] | IC50 (NCI-H460) [µM] | IC50 (A549) [µM]
6 | CCC1CCCCCCCCC2=N/C(=C\c3[nH]c(-c4ccc[nH]4)cc3OC)C1=C2 (stereo not given) [METACYCLOPRODIGININE] | 1.7 | 1.78 | 5.21 | 0.33 | 1.25
7 | CCCCCC1=C/C(=C/c2[nH]c(-c3ccc[nH]3)cc2OC)N=C1C [PRODIGIOSIN] | 0.173 | 0.079 | 0.213 | 0.032 | 0.077
